Literature values, collected in article PMC8388771, “Cationic Peptidomimetic Amphiphiles Having a N-Aryl- or N-Naphthyl-1,2,3-Triazole Core Structure Targeting Clostridioides (Clostridium) difficile: Synthesis, Antibacterial Evaluation, and an In Vivo C. difficile Infection Model” (Antibiotics, 2021).
≈ marks a conversion by molar mass, not a printed value.

What was measured:
C. difficile 132 (RT027) = system: C. difficile 132 (RT027); design: method as in PMID 30831407; conditions: Table 2; cited from earlier work
S. aureus ATCC 29213 = system: S. aureus ATCC 29213; design: method as in ref 30 (1), 31 (2, 4), 19 (3); conditions: Table 2; ref 30 (1), 31 (2, 4), 19 (3); cited from earlier work
S. aureus NCTC 10442 = system: S. aureus NCTC 10442; design: method as in ref 31 (2, 4), 19 (3); conditions: Table 2; MRSA; ref 31 (2, 4), 19 (3); cited from earlier work
E. faecalis ATCC 29212 = system: E. faecalis ATCC 29212; design: method as in ref 30 (1), 31 (2, 4), 19 (3); conditions: Table 2; ref 30 (1), 31 (2, 4), 19 (3); cited from earlier work
S. pneumoniae ATCC 49619 = system: S. pneumoniae ATCC 49619; design: method as in ref 30 (1), 31 (2, 4), 19 (3); conditions: Table 2; ref 30 (1), 31 (2, 4), 19 (3); cited from earlier work
E. coli ATCC 25922 = system: E. coli ATCC 25922; design: method as in ref 30 (1), 31 (2, 4), 19 (3); conditions: Table 2; ref 30 (1), 31 (2, 4), 19 (3); cited from earlier work
HEK293 cells = system: HEK293 cells; design: method as in PMID 30831407; conditions: Table 2; cited from earlier work
S. aureus ATCC 43300 = system: S. aureus ATCC 43300; design: method as in PMID 30831407; conditions: Table 2; MRSA; cited from earlier work
sheep erythrocytes = conditions: cited from earlier work
[1] = design: method as in PMID 30901686; conditions: cited from earlier work
C. difficile [2] = conditions: Figure 1; cited from earlier work
C. difficile [3] = system: C. difficile; design: method as in PMID 30901686; conditions: murine CDI model, cited from earlier work

## CC(C)CCOc1ccccc1-c1ccccc1OCc1cn(C[C@@H](CCCCN)NC(=O)[C@@H](CCCNC(=N)N)n2cc(C3CCCCC3)nn2)nn1 [Compound 4]
C. difficile 132 (RT027)
  MIC C. difficile 132 (RT027): 8 µg/mL (≈ 10.8 µM)
S. aureus ATCC 29213
  MIC S. aureus ATCC 29213: 8 µg/mL (≈ 10.8 µM)
S. aureus NCTC 10442
  MIC S. aureus NCTC 104422: 4 µg/mL (≈ 5.39 µM)
E. faecalis ATCC 29212
  MIC E. faecalis ATCC 29212: 8 µg/mL (≈ 10.8 µM)
S. pneumoniae ATCC 49619
  MIC S. pneumoniae ATCC 49619: 4 µg/mL (≈ 5.39 µM)
E. coli ATCC 25922
  MIC E. coli ATCC 25922: 8 µg/mL (≈ 10.8 µM)
HEK293 cells
  CC50: 14.2 µg/mL (≈ 19.1 µM)
S. aureus ATCC 43300
  MIC S. aureus ATCC 43300: 4 µg/mL (≈ 5.39 µM)
Sheep erythrocytes; Table 2 HC50 column, footnote i, sheep erythrocytes
  % hemolysis at 50 µg/mL: 23% ^i
Sheep erythrocytes; in words
  in vitro hemolytic activity: low
[1]; Figure 1
  appearance in the solubility assay: homogenous suspension
[1]
  SR = solubility ratio relative to that of compound 1: 4
C. difficile [2]
  MIC against C. difficile: 4 µg/mL (≈ 5.39 µM)
C. difficile [3]; 10% DMSO group 0%
  survival rate at 24 h: 60%
C. difficile [3]
  survival rate after 48 h: 0%
